From article PMC8048860 (Chemmedchem, 2020)
pEC50: −log10 of the molar value.

Columns and labels:
[1] = tested on: T. cruzi (Tulahuen strain, DTU VI) expressing beta-galactosidase; test: T. cruzi growth inhibition assay; type: cell-based, Trypanosoma cruzi; conditions: read-out: T. cruzi EC50; averages of triplicate data; 3T3 host cells, 6 days
[2] = tested on: human hepatocellular cells (HepG2); test: Mammalian cell growth inhibition assay, HepG2; type: cell-based; conditions: for pEC50: HepG2, 48 h, read-out: Hep G2 EC50
[3] = tested on: human lymphocytic cells (CRL-8155); test: Mammalian cell growth inhibition assay, CRL-8155; type: cell-based; conditions: for pEC50: CRL8155, 48 h, read-out: CLR‐8155 EC50

Structure (SMILES) | pEC50 [1] | pEC50 [2] | pEC50 [3] | EC90 ([2]; HepG2, read-out: Hep G2 EC90 (control compound)) | EC90 ([3]; CRL8155, read-out: CRL‐8155 EC90 (control compound))
Cc1ccc2nc(-c3ccc(F)c(F)c3)c(CN3CCN(C4CCCCC4)CC3)n2c1 [Compound 37] | 5.59 | – | – | – | –
Cc1ccc2nc(-c3ccc(F)c(F)c3)c(CN3CCC(Cc4ccccc4)CC3)n2c1 [Compound 39] | 5.80 | < 4.30 | < 4.30 | – | –
CCN(CC)CCCC(C)Nc1c2ccc(Cl)cc2nc2ccc(OC)cc12 (centres unmarked) [Quinacrine] | – | 4.84 | 5.26 | 18.7 µM | 15.7 µM
